Measurements reported in PubChem BioAssay (NCI).
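Where inhibition never reached the appropriate level, the endpoint shown equals the highest concentration tested. Otherwise, values were interpolated linearly from a five-concentration, 48-hour dose response in 96-well plates. GI50: concentration for 50% inhibition of growth. TGI: total growth inhibition.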

How the values were obtained:
Experiment in all cases: NCI-60 cell line screen, 48 h
PC-3 prostate = system: PC-3 prostate
SN12C renal = system: SN12C renal
RXF 393 renal = system: RXF 393 renal
M14 melanoma = system: M14 melanoma
BT-549 breast = system: BT-549 breast
MALME-3M melanoma = system: MALME-3M melanoma
UACC-257 melanoma = system: UACC-257 melanoma
OVCAR-5 ovarian = system: OVCAR-5 ovarian
COLO 205 colon = system: COLO 205 colon
DU-145 prostate = system: DU-145 prostate
UACC-62 melanoma = system: UACC-62 melanoma
NCI-H460 lung = system: NCI-H460 lung
OVCAR-3 ovarian = system: OVCAR-3 ovarian
SK-MEL-2 melanoma = system: SK-MEL-2 melanoma
HS 578T breast = system: HS 578T breast
HOP-92 NSCLC = system: HOP-92 NSCLC
SK-OV-3 ovarian = system: SK-OV-3 ovarian
A498 renal = system: A498 renal
CCRF-CEM leukemia = system: CCRF-CEM leukemia
SF-295 CNS = system: SF-295 CNS
U251 CNS = system: U251 CNS
NCI-H226 lung = system: NCI-H226 lung
HCT-15 colon = system: HCT-15 colon
SK-MEL-28 melanoma = system: SK-MEL-28 melanoma
HCT-116 colon = system: HCT-116 colon
SW-620 colon = system: SW-620 colon
IGROV1 ovarian = system: IGROV1 ovarian
HT29 colon = system: HT29 colon
NCI-H23 lung = system: NCI-H23 lung
LOX IMVI melanoma = system: LOX IMVI melanoma
UO-31 renal = system: UO-31 renal
CAKI-1 renal = system: CAKI-1 renal
A549 NSCLC = system: A549 NSCLC
HL-60(TB) leukemia = system: HL-60(TB) leukemia
SF-268 CNS = system: SF-268 CNS
TK-10 renal = system: TK-10 renal
MOLT-4 leukemia = system: MOLT-4 leukemia
SNB-19 CNS = system: SNB-19 CNS
786-0 renal = system: 786-0 renal
RPMI-8226 leukemia = system: RPMI-8226 leukemia
T-47D breast = system: T-47D breast
HOP-62 NSCLC = system: HOP-62 NSCLC
MDA-MB-435 = system: MDA-MB-435
EKVX NSCLC = system: EKVX NSCLC
ACHN renal = system: ACHN renal
OVCAR-4 ovarian = system: OVCAR-4 ovarian
SNB-75 CNS = system: SNB-75 CNS
KM12 colon = system: KM12 colon
K-562 leukemia = system: K-562 leukemia
SF-539 CNS = system: SF-539 CNS
MDA-MB-468 breast = system: MDA-MB-468 breast
MDA-MB-231 breast = system: MDA-MB-231 breast
SR leukemia = system: SR leukemia
MCF7 breast = system: MCF7 breast
NCI/ADR-RES ovarian = system: NCI/ADR-RES ovarian
HCC-2998 colon = system: HCC-2998 colon
NCI-H522 lung = system: NCI-H522 lung
OVCAR-8 ovarian = system: OVCAR-8 ovarian
SK-MEL-5 melanoma = system: SK-MEL-5 melanoma

`CN(C)c1nc(NCCNS(=O)(=O)c2ccc(C(=O)/C=C/c3ccccc3)cc2)nc(Nc2ccc(F)cc2)n1` gave a GI50 (PC-3 prostate) of 4.39 µM, a TGI (PC-3 prostate) of 20.6 µM and a GI50 (SN12C renal) of 8.2 µM. For the same compound, the TGI (SN12C renal) was 20.7 µM, the GI50 (RXF 393 renal) was 2.94 µM and the TGI (RXF 393 renal) was 14.6 µM. It also gave a GI50 (M14 melanoma) of 5.98 µM, a TGI (M14 melanoma) of 20 µM and a GI50 (BT-549 breast) of 13.9 µM. It also gave a TGI (BT-549 breast) of 27.5 µM, a GI50 (MALME-3M melanoma) of 12.7 µM and a TGI (MALME-3M melanoma) of 26.3 µM. The GI50 (UACC-257 melanoma) was 12.6 µM, the TGI (UACC-257 melanoma) was 27.8 µM and the GI50 (OVCAR-5 ovarian) was 13.3 µM. For the same compound, the TGI (OVCAR-5 ovarian) was 26.6 µM, the GI50 (COLO 205 colon) was 5.46 µM and the TGI (COLO 205 colon) was 20.8 µM. It also gave a GI50 (DU-145 prostate) of 12.1 µM, a TGI (DU-145 prostate) of 25.3 µM and a GI50 (UACC-62 melanoma) of 6.68 µM. For the same compound, the TGI (UACC-62 melanoma) was 20.3 µM, the GI50 (NCI-H460 lung) was 4.34 µM and the TGI (NCI-H460 lung) was 16.8 µM. For the same compound, the GI50 (OVCAR-3 ovarian) was 8.59 µM, the TGI (OVCAR-3 ovarian) was 21.4 µM and the GI50 (SK-MEL-2 melanoma) was 10.6 µM. For the same compound, the TGI (SK-MEL-2 melanoma) was 24.3 µM, the GI50 (HS 578T breast) was 7.39 µM and the TGI (HS 578T breast) was 57.8 µM. For the same compound, the GI50 (HOP-92 NSCLC) was 8.1 µM, the TGI (HOP-92 NSCLC) was 23.4 µM and the GI50 (SK-OV-3 ovarian) was 13 µM. The TGI (SK-OV-3 ovarian) was 29.7 µM, the GI50 (A498 renal) was 11.6 µM and the TGI (A498 renal) was 24 µM. For the same compound, the GI50 (CCRF-CEM leukemia) was 6.59 µM, the TGI (CCRF-CEM leukemia) was > 100 µM and the GI50 (SF-295 CNS) was 6.96 µM. For the same compound, the TGI (SF-295 CNS) was 19.3 µM, the GI50 (U251 CNS) was 10.4 µM and the TGI (U251 CNS) was 24.5 µM. It also gave a GI50 (NCI-H226 lung) of 5.22 µM, a TGI (NCI-H226 lung) of 19.8 µM and a GI50 (HCT-15 colon) of 2.04 µM. For the same compound, the TGI (HCT-15 colon) was 3.84 µM, the GI50 (SK-MEL-28 melanoma) was 10.2 µM and the TGI (SK-MEL-28 melanoma) was 22.2 µM. For the same compound, the GI50 (HCT-116 colon) was 1.72 µM, the TGI (HCT-116 colon) was 3.24 µM and the GI50 (SW-620 colon) was 5.56 µM. It also gave a TGI (SW-620 colon) of 20.4 µM, a GI50 (IGROV1 ovarian) of 11.2 µM and a TGI (IGROV1 ovarian) of 23.8 µM. The GI50 (HT29 colon) was 3.08 µM, the TGI (HT29 colon) was 10.6 µM and the GI50 (NCI-H23 lung) was 10.1 µM. It also gave a TGI (NCI-H23 lung) of 22.5 µM, a GI50 (LOX IMVI melanoma) of 2.47 µM and a TGI (LOX IMVI melanoma) of 7.14 µM. It also gave a GI50 (UO-31 renal) of 4.6 µM, a TGI (UO-31 renal) of 17.2 µM and a GI50 (CAKI-1 renal) of 4.75 µM. For the same compound, the TGI (CAKI-1 renal) was 19.7 µM, the GI50 (A549 NSCLC) was 8.33 µM and the TGI (A549 NSCLC) was 26 µM. It also gave a GI50 (HL-60(TB) leukemia) of 3.88 µM, a TGI (HL-60(TB) leukemia) of 29.3 µM and a GI50 (SF-268 CNS) of 5.65 µM. It also gave a TGI (SF-268 CNS) of 22.2 µM, a GI50 (TK-10 renal) of 14.6 µM and a TGI (TK-10 renal) of 30.9 µM. For the same compound, the GI50 (MOLT-4 leukemia) was 3.22 µM, the TGI (MOLT-4 leukemia) was 29.6 µM and the GI50 (SNB-19 CNS) was 10.4 µM. It also gave a TGI (SNB-19 CNS) of 23 µM, a GI50 (786-0 renal) of 11.2 µM and a TGI (786-0 renal) of 25.3 µM. The GI50 (RPMI-8226 leukemia) was 3.04 µM, the TGI (RPMI-8226 leukemia) was > 100 µM and the GI50 (T-47D breast) was 3.45 µM. For the same compound, the TGI (T-47D breast) was 14.2 µM, the GI50 (HOP-62 NSCLC) was 11.8 µM and the TGI (HOP-62 NSCLC) was 26.8 µM. The GI50 (MDA-MB-435) was 7.44 µM, the TGI (MDA-MB-435) was 23 µM and the GI50 (EKVX NSCLC) was 4.48 µM. The TGI (EKVX NSCLC) was 14.8 µM, the GI50 (ACHN renal) was 4.92 µM and the TGI (ACHN renal) was 17.3 µM. For the same compound, the GI50 (OVCAR-4 ovarian) was 4.39 µM, the TGI (OVCAR-4 ovarian) was 23.1 µM and the GI50 (SNB-75 CNS) was 3.23 µM. It also gave a TGI (SNB-75 CNS) of 33.4 µM, a GI50 (KM12 colon) of 3.74 µM and a TGI (KM12 colon) of 14 µM. The GI50 (K-562 leukemia) was 3.34 µM, the TGI (K-562 leukemia) was 18.6 µM and the GI50 (SF-539 CNS) was 12 µM. For the same compound, the TGI (SF-539 CNS) was 24.5 µM, the GI50 (MDA-MB-468 breast) was 2.84 µM and the TGI (MDA-MB-468 breast) was 12.8 µM. For the same compound, the GI50 (MDA-MB-231 breast) was 4.84 µM, the TGI (MDA-MB-231 breast) was 18.1 µM and the GI50 (SR leukemia) was 2.58 µM. The TGI (SR leukemia) was 8.25 µM, the GI50 (MCF7 breast) was 1.99 µM and the TGI (MCF7 breast) was 4.05 µM. The GI50 (NCI/ADR-RES ovarian) was 7.33 µM, the TGI (NCI/ADR-RES ovarian) was 21.1 µM and the GI50 (HCC-2998 colon) was 2.35 µM. It also gave a TGI (HCC-2998 colon) of 5.46 µM, a GI50 (NCI-H522 lung) of 5.47 µM and a TGI (NCI-H522 lung) of 20.4 µM. The GI50 (OVCAR-8 ovarian) was 12.2 µM, the TGI (OVCAR-8 ovarian) was 26.4 µM and the GI50 (SK-MEL-5 melanoma) was 4.7 µM. For the same compound, the TGI (SK-MEL-5 melanoma) was 16.9 µM.
